Results on seven molecules are retold here after US9718805B2, “Triazole compounds and their use as gamma secretase modulators” (Acturum Life Science AB, priority 2013, dated 2017).

Assay [1] concerns Aβ42 formation in HEK cell line stably expressing APP with the Swedish mutation (APPswe). Briefly: HEK assay (Aβ42 secreted to cell medium, Meso Scale electrochemiluminescence). Format: cell-based. The note with it: Homo sapiens, HEK293; HEK cells expressing APPswe; 4-6 hours incubation with test compound; read-out: pIC50 Aβ42 HEK assay (converted). On the procedure:
(§1) The level of activity of the compounds on Aβ formation was tested using the following methods:
Compounds were diluted in 100% DMSO and stored at 20° C. prior to use. Human Embryonic Kidney (HEK) cell line stably expressing APP with the Swedish mutation (APPswe) was cultured using Dulbecco's Modified Eagles medium (DMEM) supplied with […] glucose, Na-pyruvate and GlutaMAX, 10% Foetal bovine serum, 100 U/mL penicillin-streptomycin (PEST), 1× non-essential amino acids (NEAA), […] Hepes, 100 μg/mL Zeocine. Cells at about 80% confluence were washed with PBS, detached from culture flasks using 1×Trypsin/EDTA diluted in PBS, re-suspended in cell media and plated in 384-well poly-d-lysine coated cell culture plates at about 10000-15000 cells/well, in 25 μL cell media. Optionally, cryo-preserved cells (frozen and stored at −140° C. in 90% cell media and 10% DMSO) were thawed, washed and plated as above. Next the cells were incubated for 15-24 h at 37° C. and 5% CO2, after which cell medium was changed. Fresh medium containing test compound diluted ×200 from prepared compound plate was added to the cells before further incubation for 4-6 hours at 37° C. and 5% CO2. After incubation with test compound the amount of Aβ peptides, including Aβ42, Aβ40, Aβ39, Aβ38 and Aβ37, secreted to cell medium was analyzed using the electrochemiluminescence assay technology from Meso Scale Discovery Technology, in combination with specific antibodies raised against the different Aβ peptides. Potential cytotoxic effects of the compounds were assayed by measuring the ATP content (ViaLight) from cell lysate.

In assay [2] the test system is Aβ42 formation in primary cortical neuronal cells (PCN). Briefly: PCN assay (Aβ42 secreted by primary cortical neuronal cells, ELISA). Format: cell-based. The conditions noted are these: mouse primary cortical neuronal cells; 16-20 hours incubation with test compound; read-out: pIC50 Aβ42 PCN assay (converted). As for the experimental part: as §1
Compounds were diluted in 100% DMSO and stored at 20° C. prior to use. Primary cortical neuronal cells (PCN) were isolated from 16-day mouse embryos and cultured in Ham's F12 media containing 10% Foetal bovine serum, 10 mM Hepes, 2 mM L-glutamine and 100 U/ml Penicillin-Streptomycin. 150000-250000 cells/well, in 200 μl cell media were seeded onto 96-well poly-D-Lysine coated plates. After incubation at 37° C., 5% CO2 for five days, the media was exchanged for fresh medium containing test compound diluted ×100, before further incubation for 16-20 hours at 37° C. and 5% CO2. After incubation with test compound the amount of Aβ42 peptides secreted to cell medium was analyzed using the solid phase sandwich Enzyme-Linked-Immuno-Sorbent Assay (ELISA)-kit from Invitrogen for detection of mouse βAmyloid 1-42. Potential cytotoxic effects of the compounds were assayed by measuring the ATP content (Via Light) from cell lysate.

As to `COc1cc(Nc2nc(NCC3CC3)n(C)n2)ccc1-n1cnc(C)c1` [Example 1, N^5-(Cyclopropylmethyl)-N^3-[3-methoxy-4-(4-methyl-1H-imidazol-1-yl)phenyl]-1-methyl-1H-1,2,4-triazole-3,5-diamine], the IC50 in assay [1] was 79.4 nM; in assay [2], 158 nM.

In the case of `COc1cc(Nc2nc(N(CC3CC3)CC3CC3)n(C)n2)ccc1-n1cnc(C)c1` [Example 2, 5-N,5-N-Bis(cyclopropylmethyl)-3-N-[3-methoxy-4-(4-methyl-1H-imidazol-1-yl)phenyl]-1-methyl-1H-1,2,4-triazole-3,5-diamine], in assay [1], the IC50 is 63.1 nM.

As for `COc1cc(Nc2nc(NCC3CC3)n(CC(C)C)n2)ccc1-n1cnc(C)c1` [Example 3, 5-N-(Cyclopropylmethyl)-3-N-[3-methoxy-4-(4-methyl-1H-imidazol-1-yl)phenyl]-1-(2-methylpropyl)-1H-1,2,4-triazole-3,5-diamine], the IC50 in assay [1] is 63.1 nM.

Regarding `COc1cc(Nc2nc(N(C)CC(C)(C)O)n(Cc3ccccc3)n2)ccc1-n1cnc(C)c1` [Example 4, 1-[(1-Benzyl-3-{[3-methoxy-4-(4-methyl-1H-imidazol-1-yl)phenyl]amino}-1H-1,2,4-triazol-5-yl)(methyl)amino]-2-methylpropan-2-ol], the IC50 in assay [1] is 100 nM.

Consider `COc1cc(Nc2nc(N(C)CC3CC3)n(CC(C)(C)O)n2)ccc1-n1cnc(C)c1` [Example 5, 1-{5-[(Cyclopropylmethyl)(methyl)amino]-3-{[3-methoxy-4-(4-methyl-1H-imidazol-1-yl)-phenyl]amino}-1H-1,2,4-triazol-1-yl}-2-methylpropan-2-ol], for which the IC50 in assay [1] is 79.4 nM.

As for `COc1cc(Nc2nc(NCc3ccccc3)n(CC(C)(C)O)n2)ccc1-n1cnc(C)c1` [Example 6, 1-[5-(Benzylamino)-3-{[3-methoxy-4-(4-methyl-1H-imidazol-1-yl)phenyl]amino}1H-1,2,4-triazol-1-yl]-2-methylpropan-2-ol], the IC50 in assay [1] is 20 nM; in assay [2] it was 15.8 nM.

As to `COc1cc(Nc2nc(N(C)Cc3ccccc3)n(CC(C)(C)O)n2)ccc1-n1cnc(C)c1` [Example 7, 1-{5-[Benzyl(methyl)amino]-3-{[3-methoxy-4-(4-methyl-1H-imidazol-1-yl)phenyl]amino}-1H-1,2,4-triazol-1-yl}-2-methylpropan-2-ol], the IC50 was 15.8 nM in assay [1] and 20 nM in assay [2].
